From patent US20040156869A1, “2-substituted quinazolin-4-ylamine analogues” (Neurogen Corporation, priority 2002, published 2004)

target: human capsaicin receptor (VR1) (Homo sapiens, UniProt Q8NER1); assay: Capsaicin receptor binding assay ([3H]RTX competition, VR1-transfected HEK293 membranes)
Sequence (Q8NER1 whole entry): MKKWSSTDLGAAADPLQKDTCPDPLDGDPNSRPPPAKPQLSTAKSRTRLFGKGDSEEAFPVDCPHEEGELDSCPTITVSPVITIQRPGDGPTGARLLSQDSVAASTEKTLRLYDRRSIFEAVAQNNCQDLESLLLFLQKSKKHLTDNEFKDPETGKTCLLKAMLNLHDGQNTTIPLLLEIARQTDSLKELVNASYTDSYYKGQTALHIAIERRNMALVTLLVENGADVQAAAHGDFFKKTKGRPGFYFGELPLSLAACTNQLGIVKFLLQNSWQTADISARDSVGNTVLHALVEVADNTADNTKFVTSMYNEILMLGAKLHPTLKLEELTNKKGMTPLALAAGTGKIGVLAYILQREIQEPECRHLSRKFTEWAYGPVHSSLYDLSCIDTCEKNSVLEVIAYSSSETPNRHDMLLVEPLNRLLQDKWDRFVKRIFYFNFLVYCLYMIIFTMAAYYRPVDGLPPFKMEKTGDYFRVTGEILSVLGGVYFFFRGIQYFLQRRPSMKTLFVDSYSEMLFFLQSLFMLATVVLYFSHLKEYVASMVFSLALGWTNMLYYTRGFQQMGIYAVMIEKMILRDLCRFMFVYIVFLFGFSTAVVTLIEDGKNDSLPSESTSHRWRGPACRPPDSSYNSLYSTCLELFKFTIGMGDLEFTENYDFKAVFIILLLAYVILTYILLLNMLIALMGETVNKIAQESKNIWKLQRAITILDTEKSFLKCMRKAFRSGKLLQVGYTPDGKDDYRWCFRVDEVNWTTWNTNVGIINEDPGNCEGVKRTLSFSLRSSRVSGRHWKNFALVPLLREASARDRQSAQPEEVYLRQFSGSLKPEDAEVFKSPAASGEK

SMILES | Ki [nM]
O=C(CCc1nc(Nc2ccc(C(F)(F)F)cc2)c2ccc(-c3ncccc3C(F)(F)F)cc2n1)N1CCCC1 [Compound 478, 1-Pyrrolidin-1-yl-3-[4-(4-trifluoromethyl-phenylamino)-7-(3-trifluoromethyl-pyridin-2-yl)-quinazolin-2-yl]-propan-1-one] | < 1000
OCCC1CCN(Cc2nc(Nc3ccc(C(F)(F)F)nc3)c3ccc(-c4ncccc4C(F)(F)F)cc3n2)CC1 [Compound 481, 2-{1-[7-(3-Trifluoromethyl-pyridin-2-yl)-4-(6-trifluoromethyl-pyridin-3-ylamino)-quinazolin-2-ylmethyl]-piperidin-4-yl}-ethanol] | < 1000
OCC1CCN(Cc2nc(Nc3ccc(C(F)(F)F)nc3)c3ccc(-c4ncccc4C(F)(F)F)cc3n2)CC1 [Compound 482, {1-[7-(3-Trifluoromethyl-pyridin-2-yl)-4-(6-trifluoromethyl-pyridin-3-ylamino)-quinazolin-2-ylmethyl]-piperidin-4-yl}-methanol] | < 1000
CCOC(=O)N1CCN(Cc2nc(Nc3ccc(C(F)(F)F)nc3)c3ccc(-c4ncccc4C(F)(F)F)cc3n2)CC1 [Compound 483, 4-[7-(3-Trifluoromethyl-pyridin-2-yl)-4-(6-trifluoromethyl-pyridin-3-ylamino)-quinazolin-2-ylmethyl]-piperazine-1-carboxylic acid ethyl ester] | < 1000
OC1CCN(Cc2nc(Nc3ccc(C(F)(F)F)nc3)c3ccc(-c4ncccc4C(F)(F)F)cc3n2)CC1 [Compound 484, 1-[7-(3-Trifluoromethyl-pyridin-2-yl)-4-(6-trifluoromethyl-pyridin-3-ylamino)-quinazolin-2-ylmethyl]-piperidin-4-ol] | < 1000
CC1CCCN(Cc2nc(Nc3ccc(C(F)(F)F)nc3)c3ccc(-c4ncccc4C(F)(F)F)cc3n2)C1 (stereo not drawn) [Compound 485, [2-(3-Methyl-piperidin-1-ylmethyl)-7-(3-trifluoromethyl-pyridin-2-yl)-quinazolin-4-yl]-(6-trifluoromethyl-pyridin-3-yl)-amine] | < 1000
OC1CCCN(Cc2nc(Nc3ccc(C(F)(F)F)nc3)c3ccc(-c4ncccc4C(F)(F)F)cc3n2)C1 (stereo not drawn) [Compound 486, 1-[7-(3-Trifluoromethyl-pyridin-2-yl)-4-(6-trifluoromethyl-pyridin-3-ylamino)-quinazolin-2-ylmethyl]-piperidin-3-ol] | < 1000
NC(=O)C1CCN(Cc2nc(Nc3ccc(C(F)(F)F)nc3)c3ccc(-c4ncccc4C(F)(F)F)cc3n2)CC1 [Compound 487, 1-[7-(3-Trifluoromethyl-pyridin-2-yl)-4-(6-trifluoromethyl-pyridin-3-ylamino)-quinazolin-2-ylmethyl]-piperidine-4-carboxylic acid amide] | < 1000
CCOC(=O)C1CCCN(Cc2nc(Nc3ccc(C(F)(F)F)nc3)c3ccc(-c4ncccc4C(F)(F)F)cc3n2)C1 (stereo not drawn) [Compound 488, 1-[7-(3-Trifluoromethyl-pyridin-2-yl)-4-(6-trifluoromethyl-pyridin-3-ylamino)-quinazolin-2-ylmethyl]-piperidine-3-carboxylic acid ethyl ester] | < 1000
CC(=O)N1CCN(Cc2nc(Nc3ccc(C(F)(F)F)nc3)c3ccc(-c4ncccc4C(F)(F)F)cc3n2)CC1 [Compound 489, 1 -{4-[7-(3-Trifluoromethyl-pyridin-2-yl)-4-(6-trifluoromethyl-pyridin-3-ylamino)-quinazolin-2-ylmethyl]-piperazin-1-yl}-ethanone] | < 1000
OCC1CCCN(Cc2nc(Nc3ccc(C(F)(F)F)nc3)c3ccc(-c4ncccc4C(F)(F)F)cc3n2)C1 (stereo not drawn) [Compound 490, {1-[7-(3-Trifluoromethyl-pyridin-2-yl)-4-(6-trifluoromethyl-pyridin-3-ylamino)-quinazolin-2-ylmethyl]-piperidin-3-yl}-methanol] | < 1000
CCOC(=O)C1CCN(Cc2nc(Nc3ccc(C(F)(F)F)nc3)c3ccc(-c4ncccc4C(F)(F)F)cc3n2)CC1 [Compound 491, 1-[7-(3-Trifluoromethyl-pyridin-2-yl)-4-(6-trifluoromethyl-pyridin-3-ylamino)-quinazolin-2-ylmethyl]-piperidine-4-carboxylic acid ethyl ester] | < 1000
OCCN1CCN(Cc2nc(Nc3ccc(C(F)(F)F)nc3)c3ccc(-c4ncccc4C(F)(F)F)cc3n2)CC1 [Compound 492, 2-{4-[7-(3-Trifluoromethyl-pyridin-2-yl)-4-(6-trifluoromethyl-pyridin-3-ylamino)-quinazolin-2-ylmethyl]-piperazin-1-yl}-ethanol] | < 1000
OCCC1CCN(Cc2nc(Nc3ccc(C(F)(F)F)cc3)c3ccc(-c4ncccc4C(F)(F)F)cc3n2)CC1 [Compound 494, 2-{1-[4-(4-Trifluoromethyl-phenylamino)-7-(3-trifluoromethyl-pyridin-2-yl)-quinazolin-2-ylmethyl]-piperidin-4-yl}-ethanol] | < 1000
OCC1CCN(Cc2nc(Nc3ccc(C(F)(F)F)cc3)c3ccc(-c4ncccc4C(F)(F)F)cc3n2)CC1 [Compound 495, {1-[4-(4-Trifluoromethyl-phenylamino)-7-(3-trifluoromethyl-pyridin-2-yl)-quinazolin-2-ylmethyl]-piperidin-4-yl}-methanol] | < 1000

Further lines, results first:

Ki [nM] | SMILES
< 1000 | OC1CCN(Cc2nc(Nc3ccc(C(F)(F)F)cc3)c3ccc(-c4ncccc4C(F)(F)F)cc3n2)CC1 [Compound 496, 1-[4-(4-Trifluoromethyl-phenylamino)-7-(3-trifluoromethyl-pyridin-2-yl)-quinazolin-2-ylmethyl]-piperidin-4-ol]
< 1000 | OCC1CCCCN1Cc1nc(Nc2ccc(C(F)(F)F)cc2)c2ccc(-c3ncccc3C(F)(F)F)cc2n1 (stereo not drawn) [Compound 497, {1-[4-(4-Trifluoromethyl-phenylamino)-7-(3-trifluoromethyl-pyridin-2-yl)-quinazolin-2-ylmethyl]piperidin-2-yl}-methanol]
< 1000 | CC1CCCN(Cc2nc(Nc3ccc(C(F)(F)F)cc3)c3ccc(-c4ncccc4C(F)(F)F)cc3n2)C1 (stereo not drawn) [Compound 498, [2-(3-Methyl-piperidin-1-ylmethyl)-7-(3-yl)-quinazolin-4-yl]-(4-trifluoromethyl-phenyl)-amine]
< 1000 | OC1CCCN(Cc2nc(Nc3ccc(C(F)(F)F)cc3)c3ccc(-c4ncccc4C(F)(F)F)cc3n2)C1 (stereo not drawn) [Compound 499, 1-[4-(4-Trifluoromethyl-phenylamino)-7-(3-trifluoromethyl-pyridin-2-yl)-quinazolin-2-ylmethyl]-piperidin-3-ol]
< 1000 | NC(=O)C1CCN(Cc2nc(Nc3ccc(C(F)(F)F)cc3)c3ccc(-c4ncccc4C(F)(F)F)cc3n2)CC1 [Compound 500, 1-[4-(4-Trifluoromethyl-phenylamino)-7-(3-trifluoromethyl-pyridin-2-yl)-quinazolin-2-ylmethyl]-piperidine-4-carboxylic acid amide]
< 1000 | CCOC(=O)C1CCCN(Cc2nc(Nc3ccc(C(F)(F)F)cc3)c3ccc(-c4ncccc4C(F)(F)F)cc3n2)C1 (stereo not drawn) [Compound 501, 1-[4-(4-Trifluoromethyl-phenylamino)-7-(3-trifluoromethyl-pyridin-2-yl)-quinazolin-2-ylmethyl]-piperidine-3-carboxylic acid ethyl ester]
< 1000 | OCC1CCCN(Cc2nc(Nc3ccc(C(F)(F)F)cc3)c3ccc(-c4ncccc4C(F)(F)F)cc3n2)C1 (stereo not drawn) [Compound 502, {1-[4-(4-Trifluoromethyl-phenylamino)-7-(3-trifluoromethyl-pyridin-2-yl)-quinazolin-2-ylmethyl]-piperidin-3-yl}-methanol]
< 1000 | CCOC(=O)C1CCN(Cc2nc(Nc3ccc(C(F)(F)F)cc3)c3ccc(-c4ncccc4C(F)(F)F)cc3n2)CC1 [Compound 503, 1-[4-(4-Trifluoromethyl-phenylamino)-7-(3-trifluoromethyl-pyridin-2-yl)-quinazolin-2-ylmethyl]-piper idine-4-carboxylic acid ethyl ester]
< 1000 | OCCN1CCN(Cc2nc(Nc3ccc(C(F)(F)F)cc3)c3ccc(-c4ncccc4C(F)(F)F)cc3n2)CC1 [Compound 504, 2-{4-[4-(4-Trifluoromethyl-phenylamino)-7-(3-trifluoromethyl-pyridin-2-yl)-quinazolin-2-ylmethyl]-piperazin-1-yl}-ethanol]
< 1000 | CS(=O)(=O)NCc1nc(Nc2ccc(C(F)(F)F)cc2)c2ccc(-c3ncccc3C(F)(F)F)cc2n1 [Compound 506, N-[4-(4-Trifluoromethyl-phenylamino)-7-(3-trifluoromethyl-pyridin-2-yl)-quinazolin-2-ylmethyl]-methanesulfonamide]
< 1000 | FC(F)(F)c1ccc(Nc2nc(-c3ccncc3)nc3cc(-c4ncccc4C(F)(F)F)ccc23)cc1 [Compound 507, [2-Pyridin-4-yl-7-(3-trifluoromethyl-pyridin-2-yl)-quinazolin-4-yl]-(4-trifluoromethyl-phenyl)-amine]
< 1000 | FC(F)(F)c1ccc(Nc2nc(-c3cccnc3)nc3cc(-c4ncccc4C(F)(F)F)ccc23)cc1 [Compound 508, [2-Pyridin-3-yl-7-(3-trifluoromethyl-pyridin-2-yl)-quinazolin-4-yl]-(4-trifluoromethyl-phenyl)-amine]
< 1000 | COc1ccc(-c2nc(Nc3ccc(C(F)(F)F)cc3)c3ccc(-c4ncccc4C(F)(F)F)cc3n2)cn1 [Compound 509, [2-(6-Methoxy-pyridin-3-yl)-7-(3-trifluoromethyl-pyridin-2-yl)-quinazolin-4-yl]-(4-trifluoromethyl-phenyl)-amine]
< 1000 | FC(F)(F)c1ccc(Nc2nc(C3N=NN=N3)nc3cc(-c4ncccc4C(F)(F)F)ccc23)cc1 [Compound 510, [2-(5H-Tetrazol-5-yl)-7-(3-trifluoromethyl-pyridin-2-yl)-quinazolin-4-yl]-(4-trifluoromethyl-phenyl)-amine]
< 1000 | CC(C)N1CCN(Cc2nc(Nc3ccc(C(F)(F)F)cc3)c3ccc(-c4ncccc4C(F)(F)F)cc3n2)CC1 [Compound 512, [2-(4-Isopropyl-piperazin-1-ylmethyl)-7-(3-trifluoromethyl-pyridin-2-yl)-quinazolin-4-yl]-(4-trifluoromethyl-phenyl)-amine]
